Laboratory results: patent US20250367226A1, “ANTI-MALASSEZIA AGENT” (N.T.H Co., Ltd., priority 2024, published 2025)
Structures can show the parent of a compound that is named as a salt.

Tested on: Malassezia globosa
Assay: Anti-Malassezia test (viability of Malassezia, WST microbial viability assay)
Details: for viability at 1 µM / viability at 10 µM / viability at 100 µM: Malassezia globosa, 22 h, read-out: viability (%) of Malassezia, relative to negative control taken as 100; for anti-Malassezia effect compared with the positive control drugs: versus streptomycin sulfate, amorolfine hydrochloride, itraconazole; for concentration required to inhibit the viability of Malassezia by 20%: 20% inhibition of viability
Procedure: The Malassezia strain was cultured in CHROMagar Malassezia/Candida prepared medium (Kanto Chemical Co., Ltd.).
In 1 L of distilled water were dissolved 10 g of D-glucose, 5 g of peptone, 3 g of yeast extract, 3 g of malt extract and 0.1 g of penicillin. The resulting solution was filtered and used for the experiments.
A suspension of Malassezia was prepared to an optical density equivalent to McFarland's Standard No. 3 and 0.5 mL of the suspension was added to tubes. Each of the prepared samples, oleic acid and the YM medium were mixed into the tubes, and Malassezia was cultured at 37° C. for 22 hours. The fungi were stained using Microbial viability assay kit-WST (Dojindo Laboratories) and cultured at 37° C. for 2 hours. The absorbance was measured to calculate the viability of Malassezia. The results are expressed as a percentage (%) relative to a negative control (“control”: with no addition of test substances) taken as 100. A lower percentage indicates a stronger anti-Malassezia effect. The values obtained in the experiments were expressed as the mean±S.E. The significance of the difference in the means between the test substance administration groups and the negative control group was tested by the Dunnett's test. The significance level was set at 5% or 1%.

Row | SMILES | viability at 1 µM | viability at 10 µM | viability at 100 µM | anti-Malassezia effect compared with the positive control drugs | concentration required to inhibit the viability of Malassezia by 20%
1 | C[C@@H]1O[C@@H](OC[C@H]2O[C@@H](Oc3cc(O)c4c(=O)cc(-c5ccc(O)cc5)oc4c3)[C@H](O)[C@@H](O)[C@@H]2O)[C@H](O)[C@H](O)[C@H]1O [Compound 2, apigenin 7-O-α-L-rhamnopyranosyl-(1→6)-β-D-glucopyranoside] | 83.6% | 81.4% | 61.5% | comparable to or higher than that of the positive control drugs | –
2 | CC(=O)c1c(O)cc(O[C@@H]2OC(CO)[C@@H](O)C(O)C2O)c(O[C@@H]2OC(CO)[C@@H](O)C(O)C2O)c1O (some centres unmarked) [Compound 1, inermioside A] | 93.6% | 81.3% | 76.3% | comparable to or higher than that of the positive control drugs | –
3 | CCC(C)n1ncn(-c2ccc(N3CCN(c4ccc(OCC5COC(Cn6cncn6)(c6ccc(Cl)cc6Cl)O5)cc4)CC3)cc2)c1=O (centres unmarked) [Itraconazole, itraconazole, reference compound] | – | – | – | – | about 10 μM
4 | [H]/N=C(/N)N[C@H]1[C@H](O)[C@@H](O)[C@H](O[C@@H]2O[C@@H](C)[C@](O)(C=O)[C@H]2O[C@@H]2O[C@@H](CO)[C@H](O)[C@@H](O)[C@@H]2NC)[C@@H](N/C(N)=N\[H])[C@@H]1O [streptomycin sulfate, reference compound] | – | 106% | – | – | ≥ 137 µM
